{"source": "patent US20020156013A1", "about": "“Asthma associated factors as targets for treating atopic allergies including asthma and related disorders” (priority 1997, published 2002)", "key": {"[1]": {"test_system": "TS2 cells", "experiment": "Cytokine-induced proliferation of TS2 cells (tritiated thymidine)", "type": "cell-based, murine", "procedure": "TS2 cells were grown in DMEM medium supplemented with 10% fetal calf serum, 50 μM 2-mercaptoethanol, 0.55 mM L-arginine, 0.24 mM L-asparagine and 1.25 mM L-glutamine.\n(§1) The murine T-cell line TS2 grows in response to IL-2 and IL-9 in vitro. […] Cells which were maintained in medium described in Example 1 plus IL-2, were washed once with phosphate-buffered saline and plated at 3000 cells per well in the presence of 200 U/ml IL-2 or 200 U/ml of IL-9. Cells were grown for three days in the presence of PD98959 (10 μM) and then pulsed for four hours with tritiated thymidine. The cells were then harvested onto glass fiber filters and analyzed by scintillation counting.\nThe data is shown as percent growth as compared to cytokine only."}, "[2]": {"test_system": "BaF3 cells", "experiment": "Proliferation of BaF3 cells transfected with wild-type or constitutively active mutant M-Ras", "type": "cell-based, murine", "procedure": "To assess the ability of M-Ras to be able to exert a constitutive activity on cellular proliferation and to abrogate the requirement of cytokines in a cytokine-dependent cell line, site directed mutagenesis was used to generate mutant M-Ras proteins to assess their activities. Alignment of M-Ras to the H- and K-Ras proteins permitted identification of potential residues that may result in constitutive activation of M-Ras. Two mutants were prepared at codon 22, substituting a Val or Lys for Gly while another mutant was prepared at codon 71 substituting a Lys for Glu. These substitutions had been previously shown to result in active Ras molecules (FIG. 8). […] Mutant Ras cDNA was then cloned into the NotI-XbaI cloning site of the mammalian expression vector pEF-BOS which contains a puromycin resistance gene for selection of transfected cells. These expression vectors were then transfected into the IL-3 dependent cell line BaF3 and it was assayed for cytokine-independent growth. BaF3 cells were transfected with the three mutant M-Ras vectors, the wild type M-Ras vector or an empty vector by electroporation using the Gene Pulsar II (Bio-Rad). The settings used were […], 74 ohms and 300 volts with 50 μg of sterile DNA. Pooled transfected cells were selected with puromycin (3 μg/ml) and M-Ras expression was determined by Northern blot. All constructs expressed equivalent amounts of exogenous M-Ras.\nas §1, with “vitro. […] In addition, the MAPK inhibitor PD98059 has the ability to block M-Ras signaling as described in Example 10.” for “vitro.”, “Cells were grown for three days in the presence of PD98959 (10 μM) and then pulsed for four hours with tritiated thymidine.” left out\nCells were plated at 3000 cells/well in the presence or absence of IL-3 and 10 μm PD98059 and assessed for proliferation as described in Example 12. […]"}, "[3]": {"test_system": "Elk (a target of the MAPK pathway)", "experiment": "PathDetect signal transduction pathway reporting system (GAL4-Elk luciferase reporter) with activated M-Ras mutants", "type": "cell-based", "settings": "HEK293 cells, GAL4-Elk fusion", "text": "In order to characterize the pathway stimulated by activated M-Ras, applicants tested the ability of activated mutants to up-regulate the mitogen-activated protein kinase (MAPK) pathway or the c-Jun N-terminal kinase (JNK) pathway using an in vitro signal transduction pathway reporting system (FIG. 11). This luciferase-based assay allows for indirect measurement of Elk (target of the MAPK pathway) or Jun (target of the JNK pathway) protein activation. Activated MEK1, which activates Elk, served as a positive control for the MAPK pathway whereas activated MEKK was used as a positive control for the JNK pathway because it activates Jun.\nThe results of this experiment are shown in FIG. 12 for the MAPK pathway. […] In addition, M-Ras-1, M-Ras-2 and M-Ras-3 mutants activated Elk, indicating M-Ras induced activation of the MAPK pathway.\nTo characterize the activation pathway triggered by activated M-Ras, the ability of the M-Ras mutants described in Example 8 to activate the mitogen-activated protein kinase (MAPK) pathway or the c-JUN N-terminal Kinase (JNK) pathway was tested using the PathDetect in vivo signal transduction pathway reporting system (Stratagene). […] As expected, significant luciferase activity was detected when cells expressed the GAL4-Elk fusion protein together with activated MEK-1. […]"}, "[4]": {"test_system": "ERK1, 2 or 5 family or JNK family of MAPK", "settings": "Lee et al., 1994; Gallagher et al., 1997; cited from earlier work"}, "[5]": {"biological_target": "p38 MAPK (Homo sapiens, UniProt Q16539)", "sequence (Q16539 whole entry)": "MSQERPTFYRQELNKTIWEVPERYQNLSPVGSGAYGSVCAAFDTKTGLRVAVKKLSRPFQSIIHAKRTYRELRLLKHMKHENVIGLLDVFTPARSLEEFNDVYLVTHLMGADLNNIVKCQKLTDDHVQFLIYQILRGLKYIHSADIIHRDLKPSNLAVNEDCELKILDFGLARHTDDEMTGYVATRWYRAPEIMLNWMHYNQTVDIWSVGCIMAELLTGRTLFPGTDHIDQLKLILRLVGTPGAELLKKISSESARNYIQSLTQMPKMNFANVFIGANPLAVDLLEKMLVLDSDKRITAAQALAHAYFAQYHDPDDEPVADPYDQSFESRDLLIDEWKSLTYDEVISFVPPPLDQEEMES", "settings": "Lee et al., 1994; Gallagher et al., 1997; cited from earlier work"}, "[6]": {"test_system": "M-Ras", "experiment": "M-Ras induction in mitogen stimulated splenocytes (RT-PCR)", "type": "cell-based, DBA2 mouse", "settings": "DBA2 splenocytes, 5 ug/ml concanavalin A, 10 μg/ml aminosterol, 24 hours", "procedure": "Splenocytes from the DBA2 bronchial hyperresponsive mouse were treated with aminosterol compounds to test for their ability to block the induction of M-Ras in response to mitogens. This group of aminosterols was identified from the liver of the dogfish shark and as a class appear to be antiproliferative. This series of aminosterols was assayed for their ability to inhibit M-Ras expression and TH2 activity in mitogen stimulated splenocytes from the DBA2 mouse.\nSplenocytes were isolated from naive DBA2 mice by aseptic removal of spleens from anesthetized mice. Spleens were then minced by sterilized scissors and tissue was passed through a sterilized #60 wire mesh sieve. Cells were resuspended in RPMI medium and washed twice in the same medium. Cells were then resuspended in lysis buffer (4.15 g NaCl, 0.5 g KHCO3, 0.019 g EDTA in 500 ml of dH2O) to lyse red blood cells. Cells were incubated at 37° C. for 5 minutes and resuspended in RPMI plus heat inactivated 10% fetal bovine serum. Cells were then spun down and resuspended in RPMI growth media (as above) plus 5 ug/ml of concanavalin A. Cell cultures were treated with 10 μg/ml of the aminosterol compounds for 24 hours and were then harvested for RNA isolation using the Trizol method described by the manufacturer (Gibco-BRL). […]"}, "[7]": {"test_system": "TS2 cells", "experiment": "Proliferation of TS2 cells with lovastatin (3H-thymidine incorporation)", "type": "cell-based, murine", "settings": "Mus musculus, 72 h; IL-2 or IL-9 5 ng/ml, different concentrations of lovastatin, three days; maximal inhibition; read-out: inhibition of cellular proliferation of TS2 cells as compared to untreated cells", "procedure": "To further test the role of M-Ras in IL-9 signaling, yet another IL-9 responsive cell line was treated with the farnesyl transferase inhibitor lovastatin to determine if the Ras pathway was utilized for proliferation. TS2 cells were washed three times and plated in 96-well plates at a density of 1,000 cells per well. IL-2 or IL-9 was added successively at a concentration of 5 ng/ml together with different concentrations of lovastatin as indicated. DMSO was included as the vehicle control. After three days, the rate of proliferation was determined by ^3H-thymidine incorporation ([…] per well) and percent of inhibition was obtained from the ratio between treated and untreated cells."}, "[8]": {"test_system": "M-Ras", "experiment": "M-Ras prenylation in transfected BW5147 cells (immunoprecipitation, SDS-PAGE migration)", "type": "cell-based, murine", "settings": "BW5147 cells with pEF-BOS-M-Ras, 4 mg/ml lovastatin, three days, versus untreated", "procedure": "BW5147, a murine thyoma cell line that grows in the absence of any cytokine, was stably transfected with an expression vector containing wild type M-Ras cDNA (pEF-BOS-M-Ras). After two weeks of selection in 3 μg/ml of Puromycin, cells were treated for three days with different compounds previously reported to work as inhibitors of p21 Ras prenylation. Cells were then harvested and proteins were extracted and immunoprecipitated with a rabbit antibody (JAL4) specific for M-Ras. Immunoprecipitates were electrophoretically resolved by SDS-PAGE (18%) and transferred to PVDF membrane. Immunoblots were successively probed with JAL4 antibody (1:1500 dilution) to detect the expression and migratory pattern of M-Ras protein. The non-prenylated form of p21 Ras migrates slower than the fully processed form. […] In contrast, cells transfected with pEF-BOS-M-Ras overexpressed the M-Ras protein."}, "[9]": {"test_system": "TS1-RA3 cells", "experiment": "IL-9 induced proliferation of TS1-RA3 cells (acid phosphatase assay)", "type": "cell-based, murine", "settings": "grown in IL-9, varying amounts of manumycin A, 4 days; maximal inhibition", "procedure": "Ras molecules have been previously shown to function after prenlylation via farnesyl transferase and subsequent attachment to the inner cytoplasmic membrane. To test the role of M-Ras in IL-9 signaling, IL-9 responsive cells were treated with the farnesyl transferase inhibitor manumycin A in a proliferation assay to determine if the Ras pathway was utilized for proliferation. TS1-RA3 cells, which are a murine TH2 lymphocyte cell line expressing human IL-9 receptor by a transfected expression construct, were grown in the presence of IL-9 and in the absence or in varying amounts of manumycin A for 4 days."}}, "data": [{"smiles": "COc1cccc(-c2cc(=O)c3ccccc3o2)c1N", "note": "[PD98059]", "values": [{"measurement": "growth of cells grown in IL-2", "setting": "[1]; 200 U/ml IL-2, inhibitor 10 μM, three days", "result": "no inhibitory activity"}, {"measurement": "growth of cells grown in IL-9", "setting": "[1]; 200 U/ml IL-9, inhibitor 10 μM, three days", "result": "growth inhibited"}, {"measurement": "proliferation of cells expressing the mutant M-Ras gene", "setting": "[2]; BaF3, absence of IL-3, 10 μm PD98059", "result": "blocked"}, {"measurement": "IL-3 induced cellular proliferation of M-Ras wild-type transfected cells", "setting": "[2]; BaF3, with IL-3, 10 μm PD98059", "result": "no activity"}, {"measurement": "proliferation of mutant M-Ras cells grown with IL-3 (cellular toxicity check)", "setting": "[2]; BaF3, with IL-3, 10 μm PD98059", "result": "could proliferate"}, {"measurement": "luciferase induction by M-Ras-1, M-Ras-2 and M-Ras-3 mutants", "setting": "[3]", "result": "blocked"}]}, {"smiles": "Oc1ccc(-c2nc(-c3ccncc3)c(-c3ccc(F)cc3)[nH]2)cc1", "note": "[SB202190]", "values": [{"measurement": "inhibition of ERK1, 2 or 5 family or JNK family of MAPK", "setting": "[4]", "result": "not"}, {"measurement": "ability of TS2 cells to proliferate in response to IL-2", "setting": "[1]; IL-2, percent growth compared to cytokine only", "result": "not"}, {"measurement": "ability of TS2 cells to proliferate in response to IL-9", "setting": "[1]; IL-9, percent growth compared to cytokine only", "result": "blocked"}, {"measurement": "inhibition of p38 MAPK", "setting": "[5]", "result": "specifically inhibit"}]}, {"smiles": "CC(C)[C@@H](CC[C@@H](C)[C@H]1CC[C@H]2[C@@H]3[C@H](O)C[C@H]4C[C@@H](NCCCNCCCCNCCCN)CC[C@]4(C)[C@H]3CC[C@]12C)OS(=O)(=O)O", "note": "[compound 1436]", "values": [{"measurement": "expression of M-Ras", "setting": "[6]", "result": "no effect"}]}, {"smiles": "CC[C@H](C)C(=O)O[C@H]1C[C@@H](C)C=C2C=C[C@H](C)[C@H](CC[C@@H]3C[C@@H](O)CC(=O)O3)[C@H]21", "note": "[lovastatin]", "values": [{"measurement": "inhibition at 0.005 µg/mL", "setting": "[7]", "result": "≤ 95", "unit": "%"}, {"measurement": "migration of M-Ras protein on SDS-PAGE (non-prenylated form migrates slower)", "setting": "[8]", "result": "migrated higher"}]}, {"smiles": "CCCC[C@@H](C)/C=C(C)/C=C(\\C)C(=O)NC1=C[C@@](O)(/C=C/C=C/C=C/C(=O)NC2=C(O)CCC2=O)[C@@H]2O[C@@H]2C1=O", "note": "[manumycin A]", "values": [{"measurement": "inhibition of cellular proliferation of TS1-RA3 cells as compared to untreated cells", "setting": "[9]", "result": "up to 76%"}]}]}
